Laboratory results reported in US12428406B2 (PMV Pharmaceuticals, Inc., priority 2019, dated 2025).

Molecular target: T1, p53 Y220C (Homo sapiens, UniProt P04637, Y220C)
T1 construct: The recombinant protein was a truncation mutant containing only amino acids 94-312 of p53; made in house; host or cells: E. coli
Assay: In vitro DNA binding activity assay (HTRF / TR-FRET): stabilization of p53 Y220C and increase of its DNA binding activity
Format: biochemical
Details: recombinant His-tagged p53 Y220C DNA binding domain (aa 94-312), biotin-labeled consensus DNA, incubated at 27° C. or 29° C. for 60 min
In short: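 Stabilization of the mutant is inferred from increased binding of His-tagged p53 Y220C to a biotin-labeled consensus DNA, detected by HTRF with europium-streptavidin and APC-anti-His antibody. The concentration giving a 50% rise over compound-free binding is reported as SC150.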

T1 sequence (P04637 94-312, change not shown): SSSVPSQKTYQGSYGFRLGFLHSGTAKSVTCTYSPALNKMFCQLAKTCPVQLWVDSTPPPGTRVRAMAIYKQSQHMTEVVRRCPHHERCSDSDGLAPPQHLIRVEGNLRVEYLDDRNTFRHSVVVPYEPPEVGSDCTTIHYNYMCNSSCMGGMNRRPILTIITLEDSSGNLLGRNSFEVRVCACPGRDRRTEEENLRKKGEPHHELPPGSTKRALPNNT

Row | SC150 (concentration of the compound required to increase the DNA binding activity by 50%) | Structure (SMILES)
1 | + (+ = 0 μM ≤ SC150 < 0.05 μM) | CNC(=O)c1ccc(NCC#Cc2cc3c(NC4CCN(CC(C)O)CC4)cccc3n2CC(F)(F)F)c(OC)c1 (stereo not drawn) [Compound 596A, 4-{[3-(4-{[1-(2-hydroxypropyl)piperidin-4-yl]amino}-1-(2,2,2-trifluoroethyl)-1H-indol-2-yl)prop-2-yn-1-yl]amino}-3-methoxy-N-methylbenzamide]
2 | + (+ = 0 μM ≤ SC150 < 0.05 μM) | CNC(=O)c1ccc(NCC#Cc2cc3c(N[C@H]4CC[C@@H](N(C)C)CC4)cccc3n2CC(F)(F)F)c(O)c1 [Compound 97A, 3-hydroxy-N-methyl-4-{[3-(4-{[(1S,4S)-4-(dimethylamino)cyclo-hexyl]amino}-1-(2,2,2-trifluoroethyl)-1H-indol-2-yl)prop-2-yn-1-yl]amino}benzamide]
3 | + (+ = 0 μM ≤ SC150 < 0.05 μM) | COc1cc(C(=O)N[C@@H](CCC(=O)O)C(=O)O)ccc1NCC#Cc1cc2c(N[C@@H]3CCN(C)C[C@@H]3F)cccc2n1CC(F)(F)F [Compound 929A, (2S)-2-[(4-{[3-(4-{[(3S,4R)-3-fluoro-1-methylpiperidin-4-yl]amino}-1-(2,2,2-trifluoroethyl)-1H-indol-2-yl)prop-2-yn-1-yl]amino}-3-methoxyphenyl)formamido]pentanedioic acid]
4 | + (+ = 0 μM ≤ SC150 < 0.05 μM) | COC[C@H](O)CN1CC[C@@H](Nc2cccc3c2cc(C#CCNc2ccc(C(=O)OC)cc2OC)n3CC(F)(F)F)[C@@H](F)C1 [Compound 878A]
5 | ++ (++ = 0.05 μM ≤ SC150 < 0.1 μM) | COCC(O)CN1CCC(Nc2cccc3c2cc(C#CCNc2ccc(S(C)(=O)=O)cc2OC)n3CC2CC2(F)F)CC1 (stereo not drawn) [Compound 704A, 1-[4-({1-[(2,2-difluorocyclopropyl)methyl]-2-{3-[(4-methanesulfonyl-2-methoxyphenyl)amino]prop-1-yn-1-yl}-1H-indol-4-yl}amino)piperidin-1-yl]-3-methoxypropan-2-ol]
6 | + (+ = 0 μM ≤ SC150 < 0.05 μM) | CNC(=O)c1ccc(NCC#Cc2cc3c(N[C@H]4CCN(C(C)(C)C)C[C@H]4F)cccc3n2CC(F)(F)F)c(OC)c1 [Compound 1073A, 4-{[3-(4-{[(3R,4S)-1-tert-butyl-3-fluoropiperidin-4-yl]amino}-1-(2,2,2-trifluoroethyl)-1H-indol-2-yl)prop-2-yn-1-yl]amino}-3-methoxy-N-methylbenzamide]
7 | ++++ (++++ = 0.2 μM ≤ SC150 < 1 μM) | CCCn1c(C#CCNc2c(F)cc(S(C)(=O)=O)cc2OC)cc2c(N[C@H]3CCN(C[C@@H](O)COC)C[C@H]3F)cccc21 [Compound 880A]
8 | ++++ (++++ = 0.2 μM ≤ SC150 < 1 μM) | COCC(O)CN1CCC(Nc2cccc3c2cc(C#CCNC(=O)c2ccccc2)n3CC(F)(F)F)C1 (stereo not drawn) [Compound 456A, N-[3-(4-{[1-(2-hydroxy-3-methoxypropyl)pyrrolidin-3-yl]amino}-1-(2,2,2-trifluoroethyl)-1H-indol-2-yl)prop-2-yn-1-yl]benzamide]
9 | + (+ = 0 μM ≤ SC150 < 0.05 μM) | COc1cc(C(=O)N(C)C)ccc1NCC#Cc1cc2c(N[C@H]3CCN(C)C[C@H]3F)cccc2n1CC(F)(F)F (racemic) [Compound 815A, rac-4-{[3-(4-{[(3R,4S)-3-fluoro-1-methylpiperidin-4-yl]amino}-1-(2,2,2-trifluoroethyl)-1H-indol-2-yl)prop-2-yn-1-yl]amino}-3-methoxy-N,N-dimethylbenzamide]
10 | + (+ = 0 μM ≤ SC150 < 0.05 μM) | CCC(=O)OCCN1CCC(Nc2cccc3c2cc(C#CCNc2ccc(S(C)(=O)=O)cc2OC)n3CC(F)(F)F)CC1 [Compound 585A, 2-{4-[(2-{3-[(4-methanesulfonyl-2-methoxyphenyl)amino]prop-1-yn-1-yl}-1-(2,2,2-trifluoroethyl)-1H-indol-4-yl)amino]piperidin-1-yl}ethyl propanoate]
11 | + (+ = 0 μM ≤ SC150 < 0.05 μM) | COCC(CN1CCC(Nc2cccc3c2cc(C#CCNc2ccc(S(N)(=O)=O)cc2OC)n3CC(F)(F)F)CC1)OC(C)=O (stereo not drawn) [Compound 619A, 1-methoxy-3-{4-[(2-{3-[(2-methoxy-4-sulfamoylphenyl)amino]prop-1-yn-1-yl}-1-(2,2,2-trifluoroethyl)-1H-indol-4-yl)amino]piperidin-1-yl}propan-2-yl acetate]
12 | + (+ = 0 μM ≤ SC150 < 0.05 μM) | COc1cc(S(C)(=O)=O)ccc1NCC#Cc1cc2c(N[C@@H]3CCN4CCC[C@@H]4C3)cccc2n1CC(F)(F)F [Compound 765A, N-[(7R,8aR)-octahydroindolizin-7-yl]-2-{3-[(4-methanesulfonyl-2-methoxyphenyl)amino]prop-1-yn-1-yl}-1-(2,2,2-trifluoroethyl)-1H-indol-4-amine]
13 | + (+ = 0 μM ≤ SC150 < 0.05 μM) | COc1cc(S(C)(=O)=O)ccc1NCC#Cc1cc2c(N[C@H]3CC[C@H](N4CCC(C(F)(F)F)CC4)CC3)cccc2n1CC(F)(F)F [Compound 436A, 2-{3-[(4-methane-sulfonyl-2-methoxy-phenyl)amino]prop-1-yn-1-yl}-N-[(1R,4R)-4-[4-(trifluoromethyl)piperidin-1-yl]cyclohexyl]-1-(2,2,2-trifluoroethyl)-1H-indol-4-amine]
14 | + (+ = 0 μM ≤ SC150 < 0.05 μM) | CCCn1c(C#CCNc2ccc(S(C)(=O)=O)cc2OC)cc2c(N[C@H]3CCN(C[C@@H](O)COC)C[C@H]3F)cccc21 (racemic) [Compound 884A]
15 | + (+ = 0 μM ≤ SC150 < 0.05 μM) | COc1cc(C(=O)N2CC3(COC3)C2)ccc1NCC#Cc1cc2c(N[C@@H]3CCN(C)C[C@@H]3F)cccc2n1CC(F)(F)F [Compound 906A, N-[(3S,4R)-3-fluoro-1-methylpiperidin-4-yl]-2-{3-[(2-methoxy-4-{2-oxa-6-azaspiro[3.3]heptane-6-carbonyl}phenyl)amino]prop-1-yn-1-yl}-1-(2,2,2-trifluoroethyl)-1H-indol-4-amine]
16 | ++ (++ = 0.05 μM ≤ SC150 < 0.1 μM) | COc1cc(S(C)(=O)=O)ccc1NCC#Cc1cc2c(N[C@H]3C[C@@H](C)O[C@@H](C)C3)cccc2n1CC(F)(F)F [Compound 1027A, 2-{3-[(4-methanesulfonyl-2-methoxyphenyl)amino]prop-1-yn-1-yl}-N-[(2R,4R,6S)-2,6-dimethyloxan-4-yl]-1-(2,2,2-trifluoroethyl)-1H-indol-4-amine]
17 | + (+ = 0 μM ≤ SC150 < 0.05 μM) | Cc1cc(S(C)(=O)=O)ccc1NCC#Cc1cc2c(N[C@H]3CC[C@H](N(C)C)CC3)cccc2n1CC(F)(F)F [Compound 140A]

Row | Structure (SMILES) | SC150 (concentration of the compound required to increase the DNA binding activity by 50%)
18 | COc1cc(S(C)(=O)=O)ccc1NCC#Cc1cc2c(NC3CCN(CC(O)COCC(O)CO)CC3)cccc2n1CC(F)(F)F (stereo not drawn) [Compound 669A, 3-(2-hydroxy-3-{4-[(2-{3-[(4-methanesulfonyl-2-methoxyphenyl)amino]prop-1-yn-1-yl}-1-(2,2,2-trifluoroethyl)-1H-indol-4-yl)amino]piperidin-1-yl}propoxy)propane-1,2-diol] | + (+ = 0 μM ≤ SC150 < 0.05 μM)
